The values that follow are results of earlier work, collected in patent US5426034A, “Process for the production and use of a stable 6-phosphogluconolactonase” (Boehringer Mannheim GmbH, priority 1990, dated 1995).

The structures appear in SMILES notation.

The test system of this series is 6-phosphogluconolactonase (phosphogluconolactonase) from Zymomonas mobilis. Conditions: Zymomonas enzyme, literature value (Scopes 1985); substrate specificity.

On to `O=C1O[C@H](COP(=O)(O)O)[C@@H](O)[C@H](O)[C@H]1O` [6-phosphogluconolactone], for which the Km – broadly, the substrate concentration at which the rate is half of its maximum – is 20 to 30 µM.
